Test results as given in patent publication US11730712B2, “Functionalized long-chain hydrocarbon mono- and di-carboxylic acids and derivatives thereof, and their use for the prevention or treatment of disease” (ESPERVITA THERAPEUTICS, INC., priority 2021, dated 2023).

Tested on: liver fibrosis gene panel (770 genes)
Assay: Nanostring nCounter Fibrosis panel gene expression in liver of DEN-injected mice
Format: in vivo, mouse
Conditions: vs vehicle
Procedure: Nanostring Analysis. RNA was extracted from paired liver and tumor tissue from vehicle, Compound I-1 (100 mg/kg) and Compound I-32 (100 mg/kg) treated mice using an RNeasy kit (Qiagen, Calif., USA) as per manufacturer's protocol. All RNA samples passed the BioAnalyzer quality control test. The expression of target genes in liver and tumor were analyzed using the nCounter Fibrosis and Cancer Panel (NanoString Technologies, Inc., WA, USA), respectively according to manufacturer's protocol at the McMaster Genomics Facility. Technical and biological normalization against global geometric mean was performed in nSolver 4.0 software (NanoString Technologies). Technical normalization was performed in the nSolver software (version 4.0.70) by normalizing sample target raw counts to the geometric mean of positive control spike-ins. Biological normalization was performed by normalizing sample target raw counts to the geometric mean of selected housekeeping genes (Ppia, Nubp1, Nol7, Armh3, Rplp0, Cnot10, Pgk1, and Acad9). Pathway scores were calculated as the first principal component of the normalized expression values for all genes in each pathway and samples were compiled according to experimental groups to determine average pathway scores. Statistical significance was calculated between experimental groups using multiple t-tests and p-values were corrected for multiple comparisons using Benjamin-Hochberg false discovery rate.
Molecular analysis. To identify the pathways modulated in the liver and tumor tissue, nanostring analysis of fibrosis and cancer, pathways, respectively were completed in an n=8 mice treated with vehicle or Compound I-32 or Compound I-1 at 100 mg/kg.

CC(C)(CCCCc1ccc(CCCCC(C)(C)C(=O)O)cc1)C(=O)O [Compound I-1, 6-[4-(5-carboxy-5-methylhexyl)-phenyl]-2,2-dimethylhexanoic acid]
Tin1 Log2FC (NM_011602, 100 mg/kg): −0.237
Txn1 Log2FC (NM_011660, 100 mg/kg): 0.281
Vegfb Log2FC (NM_011697, 100 mg/kg): 0.603
Vim Log2FC (NM_011701, 100 mg/kg): −0.309
Adh4 Log2FC (NM_011996, 100 mg/kg): −0.808
Apoa2 Log2FC (NM_013474, 100 mg/kg): 0.172
Apoh Log2FC (NM_013475, 100 mg/kg): −0.225
C9 Log2FC (NM_013485, 100 mg/kg): −1.55
Cpt1a Log2FC (NM_013495, 100 mg/kg): −0.302
Creb3 Log2FC (NM_013497, 100 mg/kg): −0.38
P3h3 Log2FC (NM_013534, 100 mg/kg): −0.96
Ptpn6 Log2FC (NM_013545, 100 mg/kg): 0.326
Slc25a10 Log2FC (NM_013770, 100 mg/kg): 0.508
H2-M3 Log2FC (NM_013819, 100 mg/kg): −0.69
Xbp1 Log2FC (NM_013842, 100 mg/kg): −0.397
Col5a1 Log2FC (NM_015734, 100 mg/kg): −0.513
Isg15 Log2FC (NM_015783, 100 mg/kg): −0.727
C6 Log2FC (NM_016704, 100 mg/kg): −0.969
Smad3 Log2FC (NM_016769, 100 mg/kg): −0.317
Irf3 Log2FC (NM_016849, 100 mg/kg): −0.154
Ywhag Log2FC (NM_018871, 100 mg/kg): 0.305
Fbp1 Log2FC (NM_019395, 100 mg/kg): −0.878
Ndufa1 Log2FC (NM_019443, 100 mg/kg): 0.226
Cpb2 Log2FC (NM_019775, 100 mg/kg): −0.58
Uba52 Log2FC (NM_019883, 100 mg/kg): 0.484
Ube2d2a Log2FC (NM_019912, 100 mg/kg): −0.237
Aldh9a1 Log2FC (NM_019993, 100 mg/kg): 0.545
Angpti4 Log2FC (NM_020581, 100 mg/kg): 0.707
Isg20 Log2FC (NM_020583, 100 mg/kg): −0.48
Abcb11 Log2FC (NM_021022, 100 mg/kg): −0.442
Tlr4 Log2FC (NM_021297, 100 mg/kg): −0.608
Mlxipl Log2FC (NM_021455, 100 mg/kg): 0.439
Cxcl12 Log2FC (NM_021704, 100 mg/kg): −0.597
Apoc3 Log2FC (NM_023114, 100 mg/kg): −0.657
Kng1 Log2FC (NM_023125, 100 mg/kg): −0.396
Cxcl16 Log2FC (NM_023158, 100 mg/kg): −0.374
Em1 Log2FC (NM_023913, 100 mg/kg): −0.533
Sec61b Log2FC (NM_024171, 100 mg/kg): −0.355
Cyp27a1 Log2FC (NM_024264, 100 mg/kg): −0.594
Fabp4 Log2FC (NM_024406, 100 mg/kg): 1.01
Spop Log2FC (NM_025287, 100 mg/kg): 0.186
Ndufb5 Log2FC (NM_025316, 100 mg/kg): 0.415
Ssr2 Log2FC (NM_025448, 100 mg/kg): −0.177
Psenen Log2FC (NM_025498, 100 mg/kg): −0.126
Ndufc1 Log2FC (NM_025523, 100 mg/kg): 0.438
Cox6b1 Log2FC (NM_025628, 100 mg/kg): 0.532
Uqcrh Log2FC (NM_025641, 100 mg/kg): 0.311
Uqcrfs1 Log2FC (NM_025710, 100 mg/kg): 0.255
Map1lc3a Log2FC (NM_025735, 100 mg/kg): 0.807
Ndufb8 Log2FC (NM_026061, 100 mg/kg): 0.327
Erp29 Log2FC (NM_026129, 100 mg/kg): −0.217
Uqcrb Log2FC (NM_026219, 100 mg/kg): 0.476
Hikeshi Log2FC (NM_026304, 100 mg/kg): 0.233
Sugt1 Log2FC (NM_026474, 100 mg/kg): 0.185
Atg101 Log2FC (NM_026566, 100 mg/kg): −0.436
Ndufs3 Log2FC (NM_026688, 100 mg/kg): 0.26
Anapc10 Log2FC (NM_026904, 100 mg/kg): −0.291
Ifi35 Log2FC (NM_027320, 100 mg/kg): −0.465
Pgm2 Log2FC (NM_028132, 100 mg/kg): 0.361
Phykpl Log2FC (NM_028398, 100 mg/kg): −0.165
Pik3cb Log2FC (NM_029094, 100 mg/kg): −0.421
Tlr1 Log2FC (NM_030682, 100 mg/kg): −1.09
Hcar2 Log2FC (NM_030701, 100 mg/kg): 1.71
Cpn1 Log2FC (NM_030703, 100 mg/kg): 0.371
Slc2a2 Log2FC (NM_031197, 100 mg/kg): −0.543
Lamtor2 Log2FC (NM_031248, 100 mg/kg): 0.195
Loxl2 Log2FC (NM_033325, 100 mg/kg): −0.689
Derl2 Log2FC (NM_033562, 100 mg/kg): −0.334
Ube2n Log2FC (NM_080560, 100 mg/kg): −0.15
Elovl6 Log2FC (NM_130450, 100 mg/kg): 0.819
Acaca Log2FC (NM_133360, 100 mg/kg): 0.655
Fgg Log2FC (NM_133862, 100 mg/kg): −0.517
Acacb Log2FC (NM_133904, 100 mg/kg): 0.612
Il1rap Log2FC (NM_134103, 100 mg/kg): −0.815
Ptpa Log2FC (NM_138748, 100 mg/kg): 0.372
Mylk Log2FC (NM_139300, 100 mg/kg): −0.458
Fcgr4 Log2FC (NM_144559, 100 mg/kg): −0.541
Aldob Log2FC (NM_144903, 100 mg/kg): −0.665
C1s1 Log2FC (NM_144938, 100 mg/kg): −0.902
Txndc5 Log2FC (NM_145367, 100 mg/kg): −0.284
Jak1 Log2FC (NM_146145, 100 mg/kg): −0.203
C8a Log2FC (NM_146148, 100 mg/kg): −1.21
Pkhd1 Log2FC (NM_153179, 100 mg/kg): −0.99
Nckap1l Log2FC (NM_153505, 100 mg/kg): −0.473
Mbtps2 Log2FC (NM_172307, 100 mg/kg): 0.309
Cyp4a12a Log2FC (NM_177406, 100 mg/kg): 1.65
Acaa2 Log2FC (NM_177470, 100 mg/kg): 0.464
Ep300 Log2FC (NM_177821, 100 mg/kg): −0.258
Jmjd4 Log2FC (NM_178659, 100 mg/kg): −0.385
Nceh1 Log2FC (NM_178772, 100 mg/kg): 0.592
Hadha Log2FC (NM_178878, 100 mg/kg): 1.12
Mfap3 Log2FC (NM_180599, 100 mg/kg): −0.377
Fgb Log2FC (NM_181849, 100 mg/kg): −0.336
Bst2 Log2FC (NM_198095, 100 mg/kg): 0.596
H2-Ab1 Log2FC (NM_207105, 100 mg/kg): −0.716
Acsl4 Log2FC (NM_207625, 100 mg/kg): 0.645
Cflar Log2FC (NM_207653, 100 mg/kg): −0.214
Egfr Log2FC (NM_207655, 100 mg/kg): −1.12
Mapk9 Log2FC (NM_207692, 100 mg/kg): 0.185
Stat3 Log2FC (NM_213659, 100 mg/kg): −0.646
H2-K1 Log2FC (NM_001001892, 100 mg/kg): −0.284
Kdm2a Log2FC (NM_001001984, 100 mg/kg): −0.312
Depdc5 Log2FC (NM_001025426, 100 mg/kg): −0.27
Cfhr2 Log2FC (NM_001025575, 100 mg/kg): −0.626
Ndufs5 Log2FC (NM_001030274, 100 mg/kg): 0.414
Itga1 Log2FC (NM_001033228, 100 mg/kg): −0.394
Ndufb6 Log2FC (NM_001033305, 100 mg/kg): 0.243
Xaf1 Log2FC (NM_001037713, 100 mg/kg): −0.742
Banf1 Log2FC (NM_001038231, 100 mg/kg): 0.319
Smurf1 Log2FC (NM_001038627, 100 mg/kg): −0.697
Nrp2 Log2FC (NM_001077403, 100 mg/kg): 0.665
Ptafr Log2FC (NM_001081211, 100 mg/kg): −0.518
Brpf3 Log2FC (NM_001081315, 100 mg/kg): 0.434
Rapgef2 Log2FC (NM_001099624, 100 mg/kg): −0.262
Kng2 Log2FC (NM_001102410, 100 mg/kg): −0.305
Aqp8 Log2FC (NM_001109045, 100 mg/kg): −0.993
Igf1 Log2FC (NM_001111274, 100 mg/kg): −0.496
Lrrc32 Log2FC (NM_001113379, 100 mg/kg): −0.438
Stat5b Log2FC (NM_001113563, 100 mg/kg): −0.322
Il1r1 Log2FC (NM_001123382, 100 mg/kg): −0.998
Aldh7a1 Log2FC (NM_001127338, 100 mg/kg): −0.252
Chuk Log2FC (NM_001162410, 100 mg/kg): 0.202
Mmm1 Log2FC (NM_001163507, 100 mg/kg): −0.231
Cyfip1 Log2FC (NM_001164661, 100 mg/kg): −0.264
Akt1 Log2FC (NM_001165894, 100 mg/kg): −0.226
Cd84 Log2FC (NM_001252472, 100 mg/kg): −0.439
Apoc2 Log2FC (NM_001277944, 100 mg/kg): −1.26
Cd68 Log2FC (NM_001291058, 100 mg/kg): −0.613
Col6a3 Log2FC (XM_897036, 100 mg/kg): −1.06
